The source of these data is publication PMC9421654, “Discovery of Substituted Di(pyridin-2-yl)-1,2,4-thiadiazol-5-amines as Novel Macrofilaricidal Compounds for the Treatment of Human Filarial Infections” (Journal of Medicinal Chemistry, 2022).

The data set is described as follows: Exploratory toxicological evaluation in vivo. The source says:
Showing no in vitro safety concerns (Table 7), it was progressed into in vivo safety evaluation studies. […] Since the mechanism of action of this series of compounds is not known, the best approach was to design analogs that would limit exposure within the brain.

With `CC(C)Oc1ccc(-c2nsc(Nc3ncccc3N(C)C)n2)nc1` [Compound 31, N^2-(3-(5-Isopropoxypyridin-2-yl)-1,2,4-thiadiazol-5-yl)-N3,N3-dimethylpyridine-2,3-diamine], the “exploratory toxicological evaluation, observations” value is listed as “CNS (central nervous system)-related observations were noted”.
